Measurements: US20120309699A1, “COMPOUNDS HAVING ANTI-INFLAMMATORY ACTIVITY” (Consejo Superior de Investigaciones Cientificas (CSIC), priority 2009, published 2012)

Experiments:
fibrinogen = assay: Systemic inflammation marker fibrinogen (DSS model); type: in vivo, mice; conditions: vs DSS group; HED 10 mg
Experimental: A model for intestinal inflammation based on the administration of DSS (sodium dextran sulfate) to C57BL/6 mice was used. At the present time there is no consensus about which overall is the best model for experimental colitis. The DSS model has been widely used because it has clinical, morphological and analytical characteristics which up to a point are similar to those specific to patients with ulcerative colitis or Crohn's disease.
The in vivo inflammation test was carried out using duplicates separated by a number of months. In each test each group of animals (n=8) was fed a standard diet supplemented with 2.3 mg/day/kg (animal weight) of each of the compounds, depending upon the group. This dose assumes the ingestion of 0.05 mg/day (50 μg/day) per mouse (having a mean weight of 22 grams). This dose extrapolated to a human being is equivalent to 10 mg in an adult weighing 70 kg; using the formula HED (human equivalent dose)=animal dose in mg/kg×(animal weight kg/human weight in kg)^0.33.
In each test the mice were fed for 3 weeks during which 1% DSS was included in their drink. The DSS was maintained for 8 days (and the same food as from the start). Then the DSS was withdrawn and the animals were allowed to recover for another 6 days (again with the same food).
• Monitoring of weight, food and drink ingestion. The mice in all groups were individually monitored, with weight, quantity of food ingested and water drunk each day being monitored throughout the experimental test. • Blood and water in feces. The water content of feces, as an indication of diarrhea, was evaluated using the difference in weight following evaporation in a stove. Blood was measured using reactive strips based on the guaiacol-peroxidase reaction (HealthCare Diagnosis Inc.). […] The reaction was measured using a scale from 0 (negative result) to 4 (most intense color change). • Length of colon. After sacrifice the colon was obtained from each mouse, extended and measured. […] This was evaluated by spectrophotometry at 460 nm using O-dianisidine reagent and hydrogen peroxide. The change in absorbance at 460 nm was monitored over 10 minutes in a V-630 spectrophotometer (Jasco, Tokyo, Japan). MPO activity was expressed as mU of activity/mg of fresh tissue, comparing the increase in absorbance with a standard straight line obtained using leukocyte myeloperoxidase (Sigma). • Prostaglandins in colonic mucosa. Levels of PGE2 were measured in colonic mucosa homogenates using an immunoenzyme method using a Cayman Chem. kit (USA). • “Antibody array”. […] The signal was detected by chemoluminescence. […] Signal intensities (densitometry) were analyzed using ScanAlyze software. […] The changes in cytokine levels were expressed as mean±SD in arbitrary density units. […]

interleukin-8 (IL-8) = assay: Production of interleukin-8 in HT-29 cells inoculated with Listeria monocytogenes Scott A; type: cell-based, human; conditions: HT-29, Listeria monocytogenes Scott A; for Modulation of IL-8 production at increased dose: 50 and 100 μM; for Production of IL-8: 6 hours
Experimental: The human colon carcinoma cell HT-29 model was used to evaluate the ability of the compounds derived from resveratrol to modulate the production of interleukin-8 as a response to pathogenic food bacteria. […] Cell viability was observed under the microscope and the supernatants from the wells were recovered. After centrifuging (10,000 rpm/10 min) and filtering the supernatants (0.22), IL-8 was determined using the ELISA method (Human Elisa IL-8 diaclone). The concentrations of the various derivatives tested were detected in the digestive tract of experimental animals and therefore the test fell within the range of physiological achievable concentrations.

[1] = test system: Listeria monocytogenes Scott A; assay: Adhesion of L. monocytogenes to Caco-2 cells; type: cell-based, human; conditions: Caco-2, 25 μM/well; in comparison with resveratrol and the other derivatives
Experimental: We used two cell models for colon cancer to evaluate the anti-adhesion capacity of compounds derived from resveratrol against pathogenic bacteria in food: Caco-2 (a model frequently used to measure the adhesion of microorganisms) and HT-29 (a model frequently used to measure immune response to infections by enteropathogens). Caco-2 and HT-29 cells were grown in EMEM and DMEM respectively, for which 24 well plates were used at 37° C., 5% CO2, 95% air until a single layer of confluent epithelium formed (cell concentration per well 2×10^5 and 6×10^5 respectively). Pathogenic bacteria (E. coli O157, Salmonella and Listeria monocytogenes Scott A) were placed in contact with the various compounds derived from resveratrol for 1 hour and subsequently the bacteria together with the different compounds in a concentration of 25 μM/well were inoculated on the cell cultures, incubating the plates for 2 hours at 37° C., 5% CO2, 95% air. The plates were then washed 3 times with 1 ml of sterile PBS and 1 ml of distilled water with 20% of glycerol was added, and they were frozen at −70° C. to lyse the epithelial cells. […] Concentrations of the various derivatives tested were detected in the digestive tracts of experimental animals and therefore the test lay within the range of physiologically achievable concentrations.

| SMILES | Blood fibrinogen levels (fibrinogen) | Modulation of IL-8 production at increased dose (interleukin-8 (IL-8)) | Production of IL-8 (interleukin-8 (IL-8)) | Anti-adhesion efficacy in respect of L. monocytogenes [1] |
| --- | --- | --- | --- | --- |
| CCCCCCCC(=O)OCC1OC(Oc2cc(O)cc(/C=C/c3ccc(O)cc3)c2)C(O)C(O)C1O [OCT, trans-resveratrol-3-O-(6′-O-octanoyl)-β-D-glucopyranoside] | most notable differences | more obvious | reduced production significantly | greater anti-adhesion efficacy |
| CCCC(=O)OCC1OC(Oc2cc(O)cc(/C=C/c3ccc(O)cc3)c2)C(O)C(O)C1O [BUT, trans-resveratrol-3-O-(6′-O-butanoyl)-β-D-glucopyranoside] | most notable differences | more obvious | reduced production significantly | greater anti-adhesion efficacy |
